# Data published in PubChem BioAssay (NCI).
#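 In this assay, cells in 96-well plates receive the compound at five concentrations for 48 hours. Endpoints are linearly interpolated between the surrounding concentrations. The concentration for full growth arrest is given as TGI.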
# How the values were obtained:
# Assay in all cases: growth of human tumour cells (NCI), 48 h
# SNB-19 CNS = tested on: SNB-19 CNS
# OVCAR-3 ovarian = tested on: OVCAR-3 ovarian
# SK-MEL-2 melanoma = tested on: SK-MEL-2 melanoma
# M14 melanoma = tested on: M14 melanoma
# HL-60(TB) leukemia = tested on: HL-60(TB) leukemia
# SK-OV-3 ovarian = tested on: SK-OV-3 ovarian
# MDA-N = tested on: MDA-N
# DU-145 prostate = tested on: DU-145 prostate
# T-47D breast = tested on: T-47D breast
# CCRF-CEM leukemia = tested on: CCRF-CEM leukemia
# HOP-62 NSCLC = tested on: HOP-62 NSCLC
# RXF 393 renal = tested on: RXF 393 renal
# UO-31 renal = tested on: UO-31 renal
# MDA-MB-231 breast = tested on: MDA-MB-231 breast
# NCI-H460 lung = tested on: NCI-H460 lung
# MALME-3M melanoma = tested on: MALME-3M melanoma
# SK-MEL-5 melanoma = tested on: SK-MEL-5 melanoma
# OVCAR-5 ovarian = tested on: OVCAR-5 ovarian
# SF-295 CNS = tested on: SF-295 CNS
# BT-549 breast = tested on: BT-549 breast
# CAKI-1 renal = tested on: CAKI-1 renal
# U251 CNS = tested on: U251 CNS
# HOP-92 NSCLC = tested on: HOP-92 NSCLC
# SR leukemia = tested on: SR leukemia
# MCF7 breast = tested on: MCF7 breast
# COLO 205 colon = tested on: COLO 205 colon
# HT29 colon = tested on: HT29 colon
# MOLT-4 leukemia = tested on: MOLT-4 leukemia
# UACC-62 melanoma = tested on: UACC-62 melanoma
# SW-620 colon = tested on: SW-620 colon
# PC-3 prostate = tested on: PC-3 prostate
# SK-MEL-28 melanoma = tested on: SK-MEL-28 melanoma
# LOX IMVI melanoma = tested on: LOX IMVI melanoma
# A549 NSCLC = tested on: A549 NSCLC
# NCI-H23 lung = tested on: NCI-H23 lung
# MDA-MB-435 = tested on: MDA-MB-435
# SF-539 CNS = tested on: SF-539 CNS
# RPMI-8226 leukemia = tested on: RPMI-8226 leukemia
# HS 578T breast = tested on: HS 578T breast
# NCI/ADR-RES ovarian = tested on: NCI/ADR-RES ovarian
# ACHN renal = tested on: ACHN renal
# 786-0 renal = tested on: 786-0 renal
# UACC-257 melanoma = tested on: UACC-257 melanoma
# HCT-15 colon = tested on: HCT-15 colon
# SNB-75 CNS = tested on: SNB-75 CNS
# IGROV1 ovarian = tested on: IGROV1 ovarian
# SF-268 CNS = tested on: SF-268 CNS
# KM12 colon = tested on: KM12 colon
# K-562 leukemia = tested on: K-562 leukemia
# TK-10 renal = tested on: TK-10 renal
# HCT-116 colon = tested on: HCT-116 colon
# OVCAR-4 ovarian = tested on: OVCAR-4 ovarian
# HCC-2998 colon = tested on: HCC-2998 colon
# SN12C renal = tested on: SN12C renal
# EKVX NSCLC = tested on: EKVX NSCLC
# NCI-H522 lung = tested on: NCI-H522 lung
# NCI-H226 lung = tested on: NCI-H226 lung
# OVCAR-8 ovarian = tested on: OVCAR-8 ovarian
# A498 renal = tested on: A498 renal
structure (smiles),measurement,setting,value
COc1ccc(C2C(C#N)=C(S)N(C3OC(COC(C)=O)C(OC(C)=O)C(OC(C)=O)C3OC(C)=O)C(C)=C2C(C)=O)cc1 (stereo unspecified),TGI,SNB-19 CNS,> 100 µM
same,TGI,OVCAR-3 ovarian,> 100 µM
same,TGI,SK-MEL-2 melanoma,> 100 µM
same,TGI,M14 melanoma,> 100 µM
same,TGI,HL-60(TB) leukemia,> 100 µM
same,TGI,SK-OV-3 ovarian,> 100 µM
same,TGI,MDA-N,> 100 µM
same,TGI,DU-145 prostate,> 100 µM
same,TGI,T-47D breast,83.1 µM
same,TGI,CCRF-CEM leukemia,> 100 µM
same,TGI,HOP-62 NSCLC,> 100 µM
same,TGI,RXF 393 renal,> 100 µM
same,TGI,UO-31 renal,> 100 µM
same,TGI,MDA-MB-231 breast,> 100 µM
same,TGI,NCI-H460 lung,> 100 µM
same,TGI,MALME-3M melanoma,> 100 µM
same,TGI,SK-MEL-5 melanoma,> 100 µM
same,TGI,OVCAR-5 ovarian,> 100 µM
same,TGI,SF-295 CNS,> 100 µM
same,TGI,BT-549 breast,> 100 µM
same,TGI,CAKI-1 renal,> 100 µM
same,TGI,U251 CNS,> 100 µM
same,TGI,HOP-92 NSCLC,> 100 µM
same,TGI,SR leukemia,> 100 µM
same,TGI,MCF7 breast,> 100 µM
same,TGI,COLO 205 colon,> 100 µM
same,TGI,HT29 colon,> 100 µM
same,TGI,MOLT-4 leukemia,> 100 µM
same,TGI,UACC-62 melanoma,> 100 µM
same,TGI,SW-620 colon,> 100 µM
same,TGI,PC-3 prostate,> 100 µM
same,TGI,SK-MEL-28 melanoma,> 100 µM
same,TGI,LOX IMVI melanoma,> 100 µM
same,TGI,A549 NSCLC,> 100 µM
same,TGI,NCI-H23 lung,> 100 µM
same,TGI,MDA-MB-435,> 100 µM
same,TGI,SF-539 CNS,> 100 µM
same,TGI,RPMI-8226 leukemia,> 100 µM
same,TGI,HS 578T breast,> 100 µM
same,TGI,NCI/ADR-RES ovarian,> 100 µM
same,TGI,ACHN renal,> 100 µM
same,TGI,786-0 renal,> 100 µM
same,TGI,UACC-257 melanoma,> 100 µM
same,TGI,HCT-15 colon,> 100 µM
same,TGI,SNB-75 CNS,> 100 µM
same,TGI,IGROV1 ovarian,> 100 µM
same,TGI,SF-268 CNS,> 100 µM
same,TGI,KM12 colon,> 100 µM
same,TGI,K-562 leukemia,> 100 µM
same,TGI,TK-10 renal,> 100 µM
same,TGI,HCT-116 colon,> 100 µM
same,TGI,OVCAR-4 ovarian,> 100 µM
same,TGI,HCC-2998 colon,> 100 µM
same,TGI,SN12C renal,> 100 µM
CNCCN[C@@H]1c2cc3c(cc2[C@@H](c2cc(OC)c(O)c(OC)c2)[C@H]2C(=O)OC[C@@H]21)OCO3,TGI,SNB-19 CNS,11.9 µM
same,TGI,OVCAR-3 ovarian,4.17 µM
same,TGI,SK-MEL-2 melanoma,1.79 µM
same,TGI,M14 melanoma,4.68 µM
same,TGI,EKVX NSCLC,22.7 µM
same,TGI,NCI-H522 lung,1.93 µM
same,TGI,HL-60(TB) leukemia,0.0483 µM
same,TGI,SK-OV-3 ovarian,1.52 µM
same,TGI,MDA-N,3.26 µM
same,TGI,DU-145 prostate,1.57 µM
same,TGI,T-47D breast,2.6 µM
same,TGI,CCRF-CEM leukemia,0.117 µM
same,TGI,HOP-62 NSCLC,0.678 µM
same,TGI,RXF 393 renal,0.747 µM
same,TGI,UO-31 renal,4.96 µM
same,TGI,MDA-MB-231 breast,2.71 µM
same,TGI,MALME-3M melanoma,1.83 µM
same,TGI,SK-MEL-5 melanoma,1.16 µM
same,TGI,OVCAR-5 ovarian,4.63 µM
same,TGI,SF-295 CNS,1.07 µM
same,TGI,BT-549 breast,0.814 µM
same,TGI,CAKI-1 renal,6.86 µM
same,TGI,U251 CNS,2.13 µM
same,TGI,NCI-H226 lung,0.686 µM
same,TGI,SR leukemia,0.287 µM
same,TGI,MCF7 breast,> 53.3 µM
same,TGI,COLO 205 colon,12 µM
same,TGI,HT29 colon,1.89 µM
same,TGI,MOLT-4 leukemia,0.0587 µM
same,TGI,UACC-62 melanoma,0.831 µM
same,TGI,SW-620 colon,> 100 µM
same,TGI,PC-3 prostate,> 41 µM
same,TGI,SK-MEL-28 melanoma,3.31 µM
same,TGI,LOX IMVI melanoma,1.35 µM
same,TGI,NCI-H23 lung,1.54 µM
same,TGI,MDA-MB-435,6.32 µM
same,TGI,SF-539 CNS,0.167 µM
same,TGI,RPMI-8226 leukemia,0.634 µM
same,TGI,HS 578T breast,1.34 µM
same,TGI,NCI/ADR-RES ovarian,> 100 µM
same,TGI,ACHN renal,1.04 µM
same,TGI,786-0 renal,0.487 µM
same,TGI,OVCAR-8 ovarian,2.22 µM
same,TGI,UACC-257 melanoma,7.61 µM
same,TGI,HCT-15 colon,98.7 µM
same,TGI,SNB-75 CNS,1.12 µM
same,TGI,IGROV1 ovarian,2.63 µM
same,TGI,SF-268 CNS,> 25.6 µM
same,TGI,KM12 colon,4.47 µM
same,TGI,K-562 leukemia,> 100 µM
same,TGI,TK-10 renal,8.21 µM
same,TGI,HCT-116 colon,5.27 µM
same,TGI,OVCAR-4 ovarian,> 100 µM
same,TGI,HCC-2998 colon,3.79 µM
same,TGI,SN12C renal,0.793 µM
COc1ccc(C(=O)NC2=C(Cl)C(=O)c3ccccc3C2=O)cc1,TGI,SNB-19 CNS,17.4 µM
same,TGI,OVCAR-3 ovarian,6.26 µM
same,TGI,SK-MEL-2 melanoma,3.13 µM
same,TGI,M14 melanoma,6.95 µM
same,TGI,EKVX NSCLC,26.1 µM
same,TGI,NCI-H522 lung,1.49 µM
same,TGI,HL-60(TB) leukemia,> 100 µM
same,TGI,SK-OV-3 ovarian,9.85 µM
same,TGI,MDA-N,10.7 µM
same,TGI,DU-145 prostate,15.2 µM
same,TGI,T-47D breast,3.83 µM
same,TGI,CCRF-CEM leukemia,> 100 µM
same,TGI,HOP-62 NSCLC,60.8 µM
same,TGI,RXF 393 renal,8.25 µM
same,TGI,UO-31 renal,8.75 µM
same,TGI,MDA-MB-231 breast,14.6 µM
same,TGI,NCI-H460 lung,13.7 µM
same,TGI,MALME-3M melanoma,3.19 µM
same,TGI,SK-MEL-5 melanoma,4.59 µM
same,TGI,OVCAR-5 ovarian,11.4 µM
same,TGI,SF-295 CNS,13.8 µM
same,TGI,BT-549 breast,9.64 µM
same,TGI,CAKI-1 renal,6.94 µM
same,TGI,U251 CNS,8.38 µM
same,TGI,NCI-H226 lung,9.32 µM
same,TGI,HOP-92 NSCLC,2.73 µM
same,TGI,SR leukemia,> 19.6 µM
same,TGI,MCF7 breast,17.8 µM
same,TGI,COLO 205 colon,3.74 µM
same,TGI,HT29 colon,19.4 µM
same,TGI,MOLT-4 leukemia,> 22 µM
same,TGI,UACC-62 melanoma,2.63 µM
same,TGI,SW-620 colon,3.45 µM
same,TGI,PC-3 prostate,10.8 µM
same,TGI,SK-MEL-28 melanoma,17.9 µM
same,TGI,LOX IMVI melanoma,6.66 µM
same,TGI,A549 NSCLC,> 36.7 µM
same,TGI,NCI-H23 lung,6.05 µM
same,TGI,MDA-MB-435,7.53 µM
same,TGI,A498 renal,27.7 µM
same,TGI,SF-539 CNS,11.6 µM
same,TGI,HS 578T breast,33.5 µM
same,TGI,NCI/ADR-RES ovarian,9.05 µM
same,TGI,ACHN renal,1.73 µM
same,TGI,OVCAR-8 ovarian,14.4 µM
same,TGI,UACC-257 melanoma,4.5 µM
same,TGI,HCT-15 colon,11 µM
same,TGI,SNB-75 CNS,12.8 µM
same,TGI,IGROV1 ovarian,12.9 µM
same,TGI,SF-268 CNS,35.6 µM
same,TGI,KM12 colon,12.2 µM
same,TGI,K-562 leukemia,> 100 µM
same,TGI,TK-10 renal,7.7 µM
same,TGI,HCT-116 colon,1.52 µM
same,TGI,OVCAR-4 ovarian,7.72 µM
same,TGI,HCC-2998 colon,16.9 µM
same,TGI,SN12C renal,9.46 µM
